The results in this text go back to PubChem BioAssay AID743470 (Broad Institute, 2014).

Structures are written as SMILES. Inconclusive results are not listed. The source made the active and inactive calls.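 How the source made its calls: active means fitted curve falls past -35% at a concentration up to twice the top valid dose; inconclusive means no clear call, values can overlap the other calls; inactive means signal rising instead of falling, plus the rest.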

Test [1] is described as follows: viability loss in HEK293 cells – cell-based, luminescence, dry powder, set 15, cytotoxicity control, dose response (AID 743470). As to conditions: HEK293T viability, CellTiter-Glo ATP luminescence, 72 h. A general note: Cellular ATP, detected with luciferase, serves as a proxy for viable cell number.
The subject of test [2] is HEK293T viability, CellTiter-Glo ATP luminescence, 72 h. The test is described as above.

For `CN1c2ccc(-c3ccc(C#N)cc3)cc2[C@H]2[C@H](CCN2S(=O)(=O)c2ccc(F)cc2)[C@H]1CO`, the activity change, negative = cytotoxicity in test [1] (at 26 µM (top of the series)) was 13.6% (inactive).
For `O=C(c1cc(Cc2n[nH]c(=O)c3ccccc23)ccc1F)N1CCN(C(=O)C2CC2)CC1`, the activity change, negative = cytotoxicity in test [1] (at 110 µM (top of the series)) is 31.3% (inactive).
On to `Clc1ccccc1-c1nnc2n1N=C(c1ccc3c(c1)OCO3)CS2`, for which the AC35 in test [2] was 3.54 µM.
With `CN(C(=O)CCCOc1ccc2[nH]c(=O)ccc2c1)C1CCCCC1`, the activity change, negative = cytotoxicity in test [1] (at 26 µM (top of the series)) was 27% (inactive).
Turning to `COc1cc([C@@H]2c3cc4c(cc3[C@@H](O[C@@H]3O[C@@H]5CO[C@@H](C)O[C@H]5[C@H](O)[C@H]3O)[C@H]3COC(=O)[C@H]23)OCO4)cc(OC)c1O`, the activity change, negative = cytotoxicity in test [1] (at 1.35 µM (top of the series)) is -29% (inactive).
Take `N#CC1=C(N)Oc2cc(N)ccc2C1c1ccccc1` (configuration not stated): the AC35 in test [2] is 17.4 µM.
Still for that read-out and setting: to `CC[C@@]1(O)C(=O)OCc2c1cc1n(c2=O)Cc2cc3c(CN(C)C)c(O)ccc3nc2-1` belongs 0.181 µM; to `COc1ccc(C2=Nn3c(nnc3-c3ccccc3OC)SC2)cc1OC`, 0.377 µM; to `Nc1ncnc2c1c(-c1cccc(OCc3ccccc3)c1)cn2C1CC(CN2CCCC2)C1` (configuration not stated), 9.93 µM.
As for `CCOC(=O)CCNc1cc(N2CCc3ccccc3CC2)nc(-c2ccccn2)n1`, the AC35 in test [2] was 9.37 µM.
On to `Cc1nc(Nc2ncc(C(=O)Nc3c(C)cccc3Cl)s2)cc(N2CCN(CCO)CC2)n1`, for which the AC35 in test [2] was 38.2 µM.
Turning to `Cc1ccc(C2C(C#N)=C(N)Oc3cc(N)ccc32)cc1` (configuration not stated), the activity change, negative = cytotoxicity in test [1] (at 26 µM (top of the series)) is -10.5% (inactive).
In the case of `COc1cc(C2C(C#N)=C(N)Oc3cc(N(C)C)ccc32)cc2c1OCO2` (configuration not stated), in test [2], the AC35 was 0.184 µM.
In the case of `COc1ccc(S(=O)(=O)N(C(C)=O)c2ccc(OC(C)=O)c3ccccc23)cc1[N+](=O)[O-]`, the AC35 in test [2] was 21.5 µM.
As for `Cc1c([C@H](C(Cl)Cl)[C@H](O)[C@H]2C[C@H](C)C(=O)O2)ccc2c1C(=O)[C@H]1[C@H]2C[C@@H](Br)[C@@]23O[C@@H](CO[C@H]2O)C[C@]13C`, the activity change, negative = cytotoxicity in test [1] (at 26 µM (top of the series)) was -35.3% (inactive).
For the compound `COc1ccc(CNc2nc(N3CCC[C@H]3CO)ncc2C(=O)NCc2ncccn2)cc1Cl`, the activity change, negative = cytotoxicity in test [1] (at 26 µM (top of the series)) was -1.87% (inactive).
For the compound `COc1ccc(S(=O)(=O)N2CC[C@@H]3[C@@H](CO)Nc4ccc(-c5ccc(C#N)cc5)cc4[C@@H]32)cc1`, the AC35 in test [2] was 6.16 µM.
With `COc1ccc(C2=Nn3c(nnc3-c3ccccc3Cl)SC2)cc1OC`, in test [2], the AC35 was 6.79 µM.
Regarding `Cc1ccccc1C1C(C#N)=C(N)Oc2cc(N)ccc21` (configuration not stated), the activity change, negative = cytotoxicity in test [1] (at 26 µM (top of the series)) was -16.9% (inactive).
The same measure, in the same setting: to `N#CC1=C(N)Oc2cc(OC(=O)c3ccccc3)ccc2C1c1cccc(Br)c1` (configuration not stated) belongs -25.6% (inactive).
As for `COc1ccc(-c2cc(NC=O)c3ncc(-c4ccc(OC)c(OC)c4)n3c2)cc1`, the AC35 in test [2] was 5.61 µM.
For the compound `N#CC1=C(N)Oc2cc(N)ccc2C1c1cccc(F)c1` (configuration not stated), the AC35 in test [2] is 4.67 µM.
For `COc1ccccc1S(=O)(=O)N1CC[C@@H]2[C@@H](CO)Nc3ccc(-c4ccc(C#N)cc4)cc3[C@@H]21`, in test [1] (at 26 µM (top of the series)), the activity change, negative = cytotoxicity was -22.8% (inactive).
On the same count and under the same terms, to `COc1ccc(C2CNC(=O)C2)cc1OC1CCCC1` (configuration not stated) belongs -2.74% (inactive); to `N#Cc1ccc(-c2ccc3c(c2)[C@H]2[C@H](CCN2S(=O)(=O)c2ccccc2F)[C@@H](CO)N3)cc1`, -7.37% (inactive); to `C[C@]1(c2nc3c(C(N)=O)cccc3[nH]2)CCCN1`, -21.6% (inactive).
For the compound `Clc1ccc(-c2cnc3ccc(-c4ccccc4)cn23)cc1`, the activity change, negative = cytotoxicity in test [1] (at 6 µM (top of the series)) was 7.25% (inactive).
Turning to `COc1ccc(-c2ccc3c(c2)[C@H]2[C@H](CCN2S(=O)(=O)c2ccc(OC)cc2)[C@@H](CO)N3C)cc1`, in test [1] (at 26 µM (top of the series)), the activity change, negative = cytotoxicity was -44.3% (inactive).
`CCC(C)C(=O)OC1CC(C)C=C2C=CC(C)C(CCC(O)CC(O)CC(=O)O)C21` (configuration not stated): in test [1] (at 50 µM (top of the series)), the activity change, negative = cytotoxicity was 55.2% (inactive).
For `N#CC1=C(N)Oc2cc(O)ccc2C1c1cccc(Br)c1` (configuration not stated), the activity change, negative = cytotoxicity in test [1] (at 26 µM (top of the series)) was -24.3% (inactive).
On the same count and under the same terms, the result for `N#CC1=C(N)Oc2cc(N)ccc2C1c1ccc2ccccc2c1` (configuration not stated) reads -9.63% (inactive).
As for `CN(C)c1ccc2c(c1)OC(N)=C(C#N)C2c1cccc(F)c1` (configuration not stated), the AC35 in test [2] was 0.586 µM.
`CC[C@]1(O)CC2CN(CCc3c([nH]c4ccccc34)[C@@](C(=O)OC)(c3cc4c(cc3OC)N(C=O)[C@H]3[C@@](O)(C(=O)OC)[C@H](OC(C)=O)[C@]5(CC)C=CCN6CC[C@]43[C@@H]65)C2)C1` (some centres not stated): in test [2], the AC35 is 0.651 µM.
In the case of `COc1ccc(C2C(C#N)=C(N)Oc3cc(N)ccc32)cc1` (configuration not stated), the activity change, negative = cytotoxicity in test [1] (at 26 µM (top of the series)) is -0.135% (inactive).
Take `CCCCc1ccc2nc(NC(=O)OC)[nH]c2c1`: the activity change, negative = cytotoxicity in test [1] (at 26 µM (top of the series)) was -29.4% (inactive).
Turning to `O=P1(NCCCl)OCCCN1CCCl` (configuration not stated), the activity change, negative = cytotoxicity in test [1] (at 50 µM (top of the series)) is 9.21% (inactive).
Consider `CN1CCN(CCOc2cc(OC3CCOCC3)c3c(Nc4c(Cl)ccc5c4OCO5)ncnc3c2)CC1`, for which the AC35 in test [2] is 23.8 µM.
In the case of `Cc1cccc(C2C(C#N)=C(N)Oc3cc(N)ccc32)c1` (configuration not stated), in test [1] (at 26 µM (top of the series)), the activity change, negative = cytotoxicity is -30.4% (inactive).
For `Cc1ccc([N+](=O)[O-])cc1S(=O)(=O)N(C)C`, the activity change, negative = cytotoxicity in test [1] (at 26 µM (top of the series)) was -23.2% (inactive).
On the same count and under the same terms, the result for `COC(=O)c1ccc(C2C(C#N)=C(N)Oc3cc(N)ccc32)cc1` (configuration not stated) reads 19.4% (inactive).
Consider `COc1ccc(C(=O)CC2(O)C(=O)Nc3c(Cl)ccc(Cl)c32)cc1` (configuration not stated), for which the activity change, negative = cytotoxicity in test [1] (at 12 µM (top of the series)) was -19.6% (inactive).
As for `N#CC1=C(N)Oc2cc(N)ccc2C1c1ccc(Cl)cc1` (configuration not stated), in test [1] (at 26 µM (top of the series)), the activity change, negative = cytotoxicity is -11.1% (inactive).
Take `COc1ccccc1-c1nnc2n1N=C(c1ccc3c(c1)OCO3)CS2`: the activity change, negative = cytotoxicity in test [1] (at 26 µM (top of the series)) was -39.2% (inactive).
On the same count and under the same terms, the result for `CN1c2ccc(-c3ccc(C#N)cc3)cc2[C@H]2[C@H](CCN2S(=O)(=O)c2cccc(F)c2)[C@H]1CO` reads -71.9% (inactive).
With `Cc1cc(Nc2cc(N3CCN(C)CC3)nc(Sc3ccc(NC(=O)C4CC4)cc3)n2)n[nH]1`, in test [2], the AC35 was 3.09 µM.
Turning to `COc1ccc(S(=O)(=O)N2CC[C@@H]3[C@@H](CO)Nc4ccc(-c5cccc(C#N)c5)cc4[C@@H]32)cc1`, in test [1] (at 26 µM (top of the series)), the activity change, negative = cytotoxicity was -20.5% (inactive).
As for `COc1cc(Nc2ncc3c(n2)-c2ccc(Cl)cc2C(c2c(F)cccc2OC)=NC3)ccc1C(=O)O`, the activity change, negative = cytotoxicity in test [1] (at 26 µM (top of the series)) was 24.7% (inactive).
On the same count and under the same terms, the result for `COc1ccc(-c2ccc3c(c2)[C@H]2[C@H](CCN2S(=O)(=O)c2ccc(OC)cc2)[C@@H](CO)N3)cc1` reads -6.28% (inactive); that for `Cc1ccc(S(=O)(=O)N2CC[C@@H]3[C@@H](CO)Nc4ccc(-c5ccc(C#N)cc5)cc4[C@@H]32)cc1`, 17.9% (inactive); that for `COc1cccc(C2C(C#N)=C(N)Oc3cc(N)ccc32)c1` (configuration not stated), -23.2% (inactive).
In the case of `COc1ccc(C2=Nn3c(nnc3-c3ccccc3F)SC2)cc1OC`, the activity change, negative = cytotoxicity in test [1] (at 8 µM (top of the series)) was -35.4% (inactive).
Consider `CCC(C)(C)C(=O)O[C@H]1C[C@@H](C)C=C2C=C[C@H](C)[C@H](CC[C@@H]3C[C@@H](O)CC(=O)O3)[C@H]21`, for which the activity change, negative = cytotoxicity in test [1] (at 6 µM (top of the series)) was 11.4% (inactive).
Consider `COc1ccc(S(=O)(=O)N2CC[C@@H]3[C@@H](CO)N(C)c4ccc(-c5ccc(F)cc5)cc4[C@@H]32)cc1`, for which, in test [1] (at 8 µM (top of the series)), the activity change, negative = cytotoxicity was 0.125% (inactive).
As to `N#CC1=C(N)Oc2cc3c(cc2C1c1cccc(Br)c1)OCO3` (configuration not stated), in test [1] (at 26 µM (top of the series)), the activity change, negative = cytotoxicity was -44.4% (inactive).
On the same count and under the same terms, the result for `N#CC1=C(N)Oc2cc(N)ccc2C12C(=O)Nc1ccc(Br)cc12` (configuration not stated) reads 5.19% (inactive).
As to `COc1ccc(NC(=O)Nc2ccc3c(c2)C(=O)N([C@@H](C)CO)C[C@H](C)[C@H](CN(C)Cc2ccc4c(c2)OCO4)O3)cc1`, in test [1] (at 12 µM (top of the series)), the activity change, negative = cytotoxicity was 20.2% (inactive).
On to `N#Cc1ccc(-c2ccc3c(c2)[C@H]2[C@H](CCN2S(=O)(=O)c2cccc(F)c2)[C@@H](CO)N3)cc1`, for which the activity change, negative = cytotoxicity in test [1] (at 26 µM (top of the series)) was -39.9% (inactive).
Consider `COc1cccc(S(=O)(=O)N2CC[C@@H]3[C@@H](CO)Nc4ccc(-c5ccc(C#N)cc5)cc4[C@@H]32)c1`, for which, in test [1] (at 26 µM (top of the series)), the activity change, negative = cytotoxicity was -26.5% (inactive).
On to `COc1ccc(S(=O)(=O)N2CC[C@@H]3[C@H](CO)Nc4ccc(-c5ccc(C#N)cc5)cc4[C@@H]32)cc1`, for which, in test [1] (at 8 µM (top of the series)), the activity change, negative = cytotoxicity was -17.6% (inactive).
With `COc1ccc(OC)c(-c2nnc3n2N=C(c2ccc(OC)c(OC)c2)CS3)c1`, the activity change, negative = cytotoxicity is -29.9% (inactive) in test [1] (at 12 µM (top of the series)) and -31.5% (inactive) in test [1] (at 26 µM (top of the series)).
Regarding `N#CC1=C(N)Oc2cc(N)ccc2C1c1cccc(Br)c1` (configuration not stated), the activity change, negative = cytotoxicity in test [1] (at 26 µM (top of the series)) is -38% (inactive).
Same read-out and setting: to `N#CC1=C(N)Oc2ccc3ccccc3c2C1c1cccc(F)c1` (configuration not stated) belongs -9.08% (inactive).
With `CCN(CCO)CCCOc1ccc2c(Nc3cc(CC(=O)Nc4cccc(F)c4)[nH]n3)ncnc2c1`, the activity change, negative = cytotoxicity in test [1] (at 1.6 µM (top of the series)) was 43.7% (inactive).
As to `O=C(Nc1c(Cl)cncc1Cl)c1ccc(OC(F)F)c(OCC2CC2)c1`, the activity change, negative = cytotoxicity in test [1] (at 26 µM (top of the series)) was -18.6% (inactive).
Same read-out and setting: the result for `COc1ccc(-c2cc(NC(C)=O)c3ncc(-c4ccc(OC)c(OC)c4)n3c2)cc1` reads -25.2% (inactive).
The same measure, in the same setting: the result for `COc1ccc(C2=Nn3c(nnc3-c3ccccc3)SC2)cc1OC` reads -1.77% (inactive).
